Key:
EP4 = EP4 (Homo sapiens (Human), UniProt P35408); experiment: hEP4 cAMP assay (BT549 breast cancer cells, HTRF cAMP); type: cell-based
Description: Plate is pre-incubated 45 minutes at room temperature. Subsequently, 2.5 microliters of PGE2 (final conc. 6 nM) are transferred into the assay plate. Plate is incubated 30 minutes at room temperature.

EP2 = EP2 (Homo sapiens (Human), UniProt P43116);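 note: antagonism of PGE2-stimulated cAMP accumulation in SF295 human glioblastoma cells with endogenous EP2, cAMP read by HTRF, expressed relative to DMSO control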
EP2, sequence (P43116 whole entry): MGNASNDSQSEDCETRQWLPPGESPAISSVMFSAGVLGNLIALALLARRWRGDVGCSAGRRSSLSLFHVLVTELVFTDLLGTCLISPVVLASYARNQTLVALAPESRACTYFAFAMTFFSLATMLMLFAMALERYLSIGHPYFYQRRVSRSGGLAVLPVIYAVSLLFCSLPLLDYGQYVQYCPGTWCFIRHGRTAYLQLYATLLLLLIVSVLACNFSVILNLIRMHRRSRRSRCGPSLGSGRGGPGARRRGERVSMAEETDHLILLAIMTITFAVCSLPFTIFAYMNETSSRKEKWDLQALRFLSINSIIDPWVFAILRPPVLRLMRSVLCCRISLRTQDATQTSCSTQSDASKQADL
Description: Human tumor cell lines expressing endogenously either EP4 or EP2 are used and cAMP accumulation in cells upon PGE2 stimulation is monitored. SF295 glioblastoma cells express high endogenous EP2 and no EP4, whereas BT549 breast cancer cells, express high endogenous EP4 levels and very low EP2 levels.
As a detection method for cAMP the HTRF (homogeneous time resolved fluorescence) Cisbio kit (HTRF cAMP dynamic 2 kit 20′000 tests Cisbio Cat. #62AM4PEC) was used, which is based on a competitive immunoassay using a Cryptate-labeled anti-cAMP antibody and d2-labeled cAMP. Native cAMP produced by cells or unlabeled cAMP (for the standard curve) compete with exogenously added d2-labeled cAMP (acceptor) for binding to monoclonal anti-cAMP-Eu3+Cryptate (donor). A FRET signal (Fluorescence Resonance Energy Transfer) is obtained only if the labeled anti-cAMP antibody binds the d2 labelled cAMP, thus the specific signal (i.e. energy transfer) is inversely proportional to the concentration of cAMP in the standard or sample.
The SF295 cells (NCI/No. 0503170) are detached from culture dishes with a cell dissociation buffer (Invitrogen, 13151-014), and collected in growing medium (GM: RPM11640 (Invitrogen 21875)/10% FCS, 1% Penicilin/streptomycin). Cells are counted washed and resuspended in assay buffer (AB; HBSS, 20 mM HEPES, 0.2% BSA; 2 mM IBMX). 4,000 cells in 5 μl of AB are seeded per well of a small volume 384 well plate (black with flat bottom, Greiner 784076).
PGE2 (Cayman 14010, stock solution: 75 μM in DMSO) is used as agonist at 75 nM final concentration, corresponding to EC80.
Two point five microliters of diluted compounds are transferred into the assay plate. Plate is pre-incubated 45 minutes at room temperature. Subsequently, 2.5 microliters of PGE2 (final conc. 75 nM) are transferred into the assay plate. Plate is incubated 30 minutes at room temperature. Five μl of each donor (anti-cAMP cryptate) and acceptor (cAMP-d2) are added and the plate is incubated another hour at room temperature in the dark and then read using a BMG LABTECH PHERAstar reader (Excitation: 337 nm, Emission: 620 and 665 nm).
The obtained Delta F (fluorescence) values (665 nm/620 nM) are converted into % cAMP values using the measurements of the cAMP calibrator provided in the kit. For each compound concentration the percentage of cAMP compared to DMSO control value as average±STDEV (each concentration is measured in duplicate) is calculated.
IC50 values and curves are generated with XLfit software (IDBS) using Dose-Response One Site model 203. When compounds were measured multiple times, mean values are given.

[1] = antagonistic activity, mean values where measured multiple times

EP4, sequence (P35408 whole entry): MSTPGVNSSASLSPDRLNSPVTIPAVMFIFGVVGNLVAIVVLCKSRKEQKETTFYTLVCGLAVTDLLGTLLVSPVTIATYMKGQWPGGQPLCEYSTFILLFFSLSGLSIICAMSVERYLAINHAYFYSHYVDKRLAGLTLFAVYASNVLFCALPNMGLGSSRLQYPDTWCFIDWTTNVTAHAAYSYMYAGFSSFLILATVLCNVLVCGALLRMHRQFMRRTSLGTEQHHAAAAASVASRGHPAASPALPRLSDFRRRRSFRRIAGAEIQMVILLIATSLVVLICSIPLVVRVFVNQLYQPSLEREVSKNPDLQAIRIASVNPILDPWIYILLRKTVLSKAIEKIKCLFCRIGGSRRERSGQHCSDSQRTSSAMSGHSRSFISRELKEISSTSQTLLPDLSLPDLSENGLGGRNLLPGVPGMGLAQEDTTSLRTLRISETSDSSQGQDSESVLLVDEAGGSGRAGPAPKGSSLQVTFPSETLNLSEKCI

Row | SMILES | IC50 (EP4; [1]) | IC50 (EP2) | IC50 (EP4; (*): measured using the cAMP assay)
1 | CCOc1cc(-c2cc(NCCn3c(C)cc4c(OC)ccc(F)c43)ncn2)cc(F)c1C(=O)O [compound 490] | 165 nM | 17 nM | 
2 | Cc1nc(-c2ccc(-c3cc(NCCn4c(C)cc5c(C)cc(F)c(F)c54)ncn3)cc2)c[nH]1 [compound 575] | 52 nM | 22 nM | 
3 | COc1ccc(F)c2cc(C)n(CCNc3cc(-c4ccc(C(=O)O)c(CC(C)C)c4)ncn3)c12 [compound 539] | 948 nM | 160 nM | 
4 | COc1ccc(F)c2c1cc(C)n2CCNc1cc(-c2ccc(C3(C(=O)O)CCCC3)cc2)ncn1 [Example 791, 1-(4-{6-[2-(7-Fluoro-4-methoxy-2-methyl-indol-1-yl)-ethylamino]-pyrimidin-4-yl}-phenyl)-cyclopentanecarboxylic acid] | 639 nM | 325 nM | 
5 | CCNc1cc(-c2cc(NCCn3c(C)cc4c(C#N)ccc(F)c43)ncn2)ccc1C(=O)O [compound 451] | 240 nM | 2 nM | 
6 | COc1cc(F)cc2c1cc(C)n2CCNc1cc(-c2ccc(-c3csc(C(=O)O)n3)cc2)ncn1 [compound 578] | 52 nM | 9 nM | 
7 | Cc1cc(F)c(F)c2c1cc(C)n2CCNc1cc(-c2ccc(-c3noc(=O)[nH]3)cc2)ncn1 [compound 680] | 113 nM | 56 nM | 
8 | CCOc1cc(-c2cc(NCCn3c(C)cc4c(C)c(F)c(F)cc43)ncn2)ccc1C(=O)O [Example 787, 4-{6-[2-(5,6-Difluoro-2,4-dimethyl-indol-1-yl)-ethylamino]-pyrimidin-4-yl}-2-ethoxy-benzoic acid] | 729 nM | 21 nM | 
9 | COc1cc(-c2cc(NCCn3c(C)cc4ccccc43)ncn2)ccc1-c1nnn[nH]1 [Example 746, {6-[3-Methoxy-4-(1H-tetrazol-5-yl)-phenyl]-pyrimidin-4-yl}-[2-(2-methyl-indol-1-yl)-ethyl]-amine] | 869 nM | 10 nM | 
10 | COc1ccc(F)c2c1cc(C)n2CCNc1cc(-c2ccc(-c3ccno3)cc2)ncn1 [compound 744, [2-(7-Fluoro-4-methoxy-2-methyl-indol-1-yl)-ethyl]-[6-(4-isoxazol-5-yl-phenyl)-pyrimidin-4-yl]-amine] | 251 nM | 8 nM | 
11 | CCOc1cc(-c2cc(NCCn3c(C)cc4c(OC)ccc(F)c43)ncn2)ccc1C(=O)NOC [Example 765, 2-Ethoxy-4-{6-[2-(7-fluoro-4-methoxy-2-methyl-indol-1-yl)-ethylamino]-pyrimidin-4-yl}-N-methoxy-benzamide] | 403 nM | 13 nM | 
12 | Cc1cc(F)cc2c1cc(C)n2CCNc1cc(-c2ccc(-c3ccccn3)cc2)ncn1 [compound 730] | 489 nM | 30 nM | 
13 | COc1cnc(-c2ccc(-c3cc(NCCn4c(C)cc5c(OC)cc(F)cc54)ncn3)cc2)nc1 [Example 757, [2-(6-Fluoro-4-methoxy-2-methyl-indol-1-yl)-ethyl]-{6-[4-(5-methoxy-pyrimidin-2-yl)-phenyl]-pyrimidin-4-yl}-amine] | 345 nM | 44 nM | 
14 | Cc1cc(F)c(F)c2c1cc(C)n2CCNc1cc(-c2ccc(-c3cncn3C)cc2)ncn1 [compound 576] | 355 nM | 399 nM | 
15 | CCOc1cc(-c2cc(NCCn3c(C#N)cc4c(OC)ccc(F)c43)ncn2)sc1/C=C/C(=O)O [Example 931, (E)-3-(5-{6-[2-(2-Cyano-7-fluoro-4-methoxy-indol-1-yl)-ethylamino]-pyrimidin-4-yl}-3-ethoxy-thiophen-2-yl)-acrylic acid] |  | 35 nM | 14 nM
16 | CCOc1cc(-c2cc(NCCn3c(Cl)cc4c(OC)ccc(F)c43)ncn2)sc1C(=O)O [Example 777, 5-{6-[2-(2-Chloro-7-fluoro-4-methoxy-indol-1-yl)-ethylamino]-pyrimidin-4-yl}-3-ethoxy-thiophene-2-carboxylic acid] | 3 nM | 2 nM | 
17 | CCOc1cc(-c2cc(NCCn3c(C)cc4ccccc43)ncn2)ccc1-c1nnn[nH]1 [compound 669] | 644 nM | 2 nM | 
18 | Cc1c(F)cc(Cl)c2c1cc(C)n2CCNc1cc(-c2ccc(C(=O)O)c(SC(C)C)c2)ncn1 [compound 504] | 535 nM | 103 nM | 
19 | CCCOc1cc(-c2cc(NCCn3c(C)cc4c(OC)cccc43)ncn2)ccc1C(=O)O [compound 400] | 418 nM | 6 nM | 
20 | CCOc1cc(-c2cc(NCCn3c(C)cc4c(OC)ccc(Cl)c43)ncn2)ccc1-c1nnn[nH]1 [compound 662] | 136 nM | 8 nM | 
21 | CCNc1cc(-c2cc(NCCn3c(C)cc4c(OC)ccc(Cl)c43)ncn2)ccc1C(=O)O [compound 396] | 65 nM | 1 nM | 
22 | Cc1ccc(F)c2c1cc(C)n2CCNc1cc(-c2ccc(-c3nc(C(=O)O)cs3)cc2)ncn1 [compound 546] | 57 nM | 16 nM | 
23 | COc1cccc2c1cc(C)n2CCNc1cc(-c2ccc(C(=O)O)c(CC(C)C)c2)ncn1 [compound 428] | 164 nM | 11 nM | 
24 | CCOc1cc(-c2cc(NCCn3c(C#N)cc4c(OC)cc(F)cc43)ncn2)ccc1C(=O)O [compound 480] | 75 nM | 26 nM | 
25 | COc1cc(F)cc2c1cc(C)n2CCNc1cc(-c2ccc(C(=O)O)c(OCC(C)C)c2)ncn1 [compound 612] | 79 nM | 8 nM | 

Row | SMILES | IC50 (EP4; [1]) | IC50 (EP2) | IC50 (EP4; (*): measured using the cAMP assay)
26 | CCOc1cc(-c2cc(NCCn3c(Cl)cc4c(C)ccc(F)c43)ncn2)ccc1C(=O)O [Example 779, 4-{6-[2-(2-Chloro-7-fluoro-4-methyl-indol-1-yl)-ethylamino]-pyrimidin-4-yl}-2-ethoxy-benzoic acid] | 242 nM | 28 nM | 
27 | CCOc1cc(-c2cc(NCCn3c(C)cc4c(OC)cccc43)ncn2)cc(F)c1C(=O)O [compound 407] | 636 nM | 15 nM | 
28 | CCCc1cc(-c2cc(NCCn3c(C)cc4c(C)ccc(F)c43)ncn2)cc(OCC)c1C(=O)O [compound 624] | 501 nM | 48 nM | 
29 | Cc1cc2c(Cl)cc(Cl)cc2n1CCNc1cc(-c2ccc(-c3nc(C(=O)O)cs3)cc2)ncn1 [compound 551] | 339 nM | 5 nM | 
30 | CCCOc1cc(-c2cc(NCCn3c(C)cc4c(C)cc(F)cc43)ncn2)ccc1C(=O)O [compound 439] | 272 nM | 19 nM | 
31 | Cc1nc(-c2ccc(-c3cc(NCCn4c(C)cc5c(C)cc(F)cc54)ncn3)cc2)c[nH]1 [compound 548] | 61 nM | 6 nM | 
32 | COc1cc(F)c(F)c2c1cc(C)n2CCNc1cc(-c2cc(Cl)c(C(=O)O)c(OCC(F)(F)F)c2)ncn1 [compound 722] | 80 nM | 32 nM | 
33 | COc1cc(F)cc2c1cc(C)n2CCNc1cc(-c2ccc(C(=O)O)c(CC(C)C)c2)ncn1 [compound 530] | 50 nM | 21 nM | 
34 | CCOc1cc(-c2cc(NCCn3c(C)cc4c(OC)ccc(F)c43)ncn2)ccc1CNC1CC1 [compound 473] | 646 nM | 538 nM | 
35 | COc1ccc(F)c2c1cc(C)n2CCNc1cc(-c2ccc(-c3cncn3C)cc2)ncn1 [compound 584] | 148 nM | 39 nM | 
36 | COc1cc(F)cc2c1cc(C)n2CCNc1cc(-c2ccc(-c3nccs3)cc2)ncn1 [Example 751, [2-(6-Fluoro-4-methoxy-2-methyl-indol-1-yl)-ethyl]-[6-(4-thiazol-2-yl-phenyl)-pyrimidin-4-yl]-amine] | 105 nM | 8 nM | 
37 | CCCc1cc(-c2cc(NCCn3c(C)cc4c(OC)ccc(Cl)c43)ncn2)ccc1C(=O)O [compound 442] | 234 nM | 12 nM | 
38 | Cc1cc(F)c(F)c2c1cc(C)n2CCNc1cc(-c2cc(C(F)(F)F)c(C(=O)O)s2)ncn1 [compound 420] | 93 nM | 95 nM | 
39 | COc1cc(Cl)cc2c1cc(C)n2CCNc1cc(-c2ccc(C(=O)O)c(CC(C)C)c2)ncn1 [compound 529] | 110 nM | 19 nM | 
40 | COc1cc(F)cc2c1cc(C)n2CCNc1cc(-c2ccc(-c3cncn3C)cc2)ncn1 [compound 582] | 161 nM | 50 nM | 
41 | Cc1cc2ccccc2n1CCNc1cc(-c2ccc3[nH]ccc3c2)ncn1 [compound 695, [6-(1H-Indol-5-yl)-pyrimidin-4-yl]-[2-(2-methyl-indol-1-yl)-ethyl]-amine] | 999 nM | 4 nM | 
42 | COc1ccc(F)c2c1cc(C)n2CCNc1cc(-c2ccc3c(c2)CN(CC(C)C)C3=O)ncn1 [compound 475] | 259 nM | 54 nM | 
43 | CCCc1cc(-c2cc(NCCn3c(C)cc4c(OC)ccc(Cl)c43)ncn2)cc(F)c1C(=O)O [compound 512] | 253 nM | 21 nM | 
44 | COc1ccc(F)c2c1cc(C)n2CCNc1cc(-c2ccc(C3(C(=O)O)CC3)c(F)c2)ncn1 [compound 564] | 317 nM | 75 nM | 
45 | CCCN1Cc2cc(-c3cc(NCCn4c(C)cc5c(OC)ccc(F)c54)ncn3)ccc2C1=O [compound 466, 5-{6-[2-(7-Fluoro-4-methoxy-2-methyl-indol-1-yl)-ethylamino]-pyrimidin-4-yl}-2-propyl-2,3-dihydro-isoindol-1-one] | 229 nM | 33 nM | 
46 | Cc1cc(F)c(F)c2c1cc(C)n2CCNc1cc(-c2cc(Cl)c(C(=O)O)c(OCC(F)(F)F)c2)ncn1 [compound 724] | 206 nM | 57 nM | 
47 | COc1ccc(F)c2c1cc(C)n2CCNc1cc(-c2ccc(C(=O)O)c(N3CCCC3)c2)ncn1 [compound 478, 4-{6-[2-(7-Fluoro-4-methoxy-2-methyl-indol-1-yl)-ethylamino]-pyrimidin-4-yl}-2-pyrrolidin-1-yl-benzoic acid] | 665 nM | 11 nM | 
48 | COc1cccc2c1cc(C)n2CCNc1cc(-c2cc(Cl)c(C(=O)O)c(OCC(C)C)c2)ncn1 [compound 691] | 177 nM | 4 nM | 
49 | COc1cc(F)cc2c1cc(C)n2CCNc1cc(-c2cccc(-n3cccn3)c2)ncn1 [compound 726] | 388 nM | 41 nM | 
50 | COc1ccc(F)c2c1cc(C)n2CCNc1cc(-c2ccc(C(=O)O)c(OCC(C)C)c2)ncn1 [compound 616] | 85 nM | 5 nM | 

Reference: patent US12011444B2, “N-substituted indole derivatives as PGE2 receptor modulators” (Idorsia Pharmaceuticals Ltd, priority 2015, dated 2024)
